Results published in patent publication US20040220086A1, “Methods and materials for targeting and affecting selected cells” (priority 2001, published 2004).

Legend:
[1] = cited from earlier work
[2] = tested on: NADH-oxidase; conditions: plasma membrane redox enzyme; cited from earlier work
[3] = tested on: human mesothelioma cells; conditions: cited from earlier work
[4] = tested on: metastatic sarcoma; conditions: person, 2000 as printed
Experimental: This concerns a person with metastatic disease from a sarcoma of their right atrium who was treated beginning August, 2000 by using conventional protocols.

[5] = tested on: normal or transferrin receptor-negative cells; conditions: cited from earlier work
[6] = tested on: leukemic cells; conditions: cells from peripheral blood and marrow of leukemia patients; cited from earlier work
[7] = tested on: drug-resistant HL60 cells; conditions: cited from earlier work
[8] = tested on: leukemic cells in peripheral blood; conditions: cited from earlier work
[9] = tested on: drug-resistant K562 cells; conditions: cited from earlier work
[10] = nude mice; cited from earlier work

O=C(O)CCCc1ccc(N(CCCl)CCCl)cc1 [chlorambucil]
survival of treated mice [1]: died

COc1cccc2c1C(=O)c1c(O)c3c(c(O)c1C2=O)C[C@@](O)(C(=O)CO)C[C@@H]3O[C@H]1C[C@H](N)[C@H](O)[C@H](C)O1 [doxorubicin, reference compound]
inhibition of NADH-oxidase [2]: efficient inhibitor

human transferrin-chlorambucil conjugates: human transferrin conjugated to chlorambucil, reference 51
survival of treated mice [1]: survived | toxicity compared with free chlorambucil ([1]; mice): less toxic

transferrin-doxorubicin conjugates
survival compared with free doxorubicin ([3]; nude mice bearing drug-resistant human tumors): survive longer | life prolongation compared to animals treated only with doxorubicin ([3]; nude mice, human mesothelioma cells): significantly prolonged life | radiological evidence of tumor ([4]; by January): no radiological evidence of tumor | metastatic lesions of the lungs ([4]; treatment begun November 2000, by January): substantially cleared | binding to cells [5]: do not bind | inhibition of NADH-oxidase [2]: inhibit | selective killing of leukemic cells [6]: kill selectively | killing of cells resistant to doxorubicin [7]: effective in killing | decrease of number of leukemic cells in peripheral blood ([8]; 7 patients, within 10-days following therapy): 86% | extension of disease by bone marrow biopsies before and after treatment ([8]; acute leukemia patients): no extension of disease | toxic effects ([8]; seven acute leukemia patients, 1 mg/day intravenously for 5 days): no toxic effects | killing of cells resistant to doxorubicin [9]: effective in killing

B1: neocarzinostatin (protein, UniProt P0A3R9 35-147, looked up)
Neocarzinostatin: AAPTATVTPSSGLSDGTVVKVAGAGLQAGTAYDVGQCAWVDTGVLACNPADFSSVTADANGSASTSLTVRRSFEGFLFDGTRWGTVDCTTAACQVGLSDAAGNGPEGVAISFN
modifications: with enediyne chromophore
half-life [10]: 7 min
